Source: US6004934A, “Tetrapeptide derivative” (Teikoku Hormone Mfg. Co., Ltd., priority 1991, dated 1999)
≈ marks a conversion by molar mass, not a printed value.

Test system: lymphocytic leukemia P388 cells
Experiment: screening of cytostatic activity using lymphocytic leukemia P388 cells
Type: cell-based
Excerpt: The screening of cytostatic activity was made using lymphocytic leukemia P388 cells.

## CC[C@H](C)[C@@H]([C@@H](CC(=O)N1CCC[C@H]1[C@H](OC)[C@@H](C)C(=O)N[C@@H](Cc1ccccc1)c1nccs1)OC)N(C)C(=O)[C@@H](NC(=O)[C@H](C(C)C)N(C)C)C(C)C [Dolastatin 10]
  ED50: 0.7 ng/mL (≈ 0.892 nM)
